Assay results published in patent US20250312258A1, “2,3-PYRROLIDINEDIONE CONJUGATES AND METHODS OF USING THEREOF” (North Carolina State University, priority 2022, published 2025).
Values after ≈ are worked out from the molar mass of the structure shown. Where two headings read alike, the source gives them in different places.

Tests used:
[1] = tested on: Group B Strep; assay: MIC against Group B Strep strain panel; assay type: cell-based; details: read-out: MIC
[2] = tested on: MRSA 33591; assay: Broth microdilution MIC, MRSA 33591; assay type: cell-based; details: Staphylococcus aureus, read-out: MIC (MRSA 33591)
[3] = tested on: S. aureus 25923; assay: Broth microdilution MIC, S. aureus 25923; assay type: cell-based, Staphylococcus aureus; details: Staphylococcus aureus, 25923; read-out: MIC (S. aureus 25923)
[4] = tested on: S. pneumoniae; assay: MIC against S. pneumoniae strain panel; assay type: cell-based; details: Streptococcus pneumoniae, read-out: MIC
[5] = tested on: VRSA; assay: MIC against VRSA strain panel (VRS/NRS strains); assay type: cell-based; details: Staphylococcus aureus, read-out: MIC
[6] = tested on: MRSA; assay: MIC against MRSA strain panel; assay type: cell-based; details: Staphylococcus aureus, the 4th table, read-out: MIC

MIC ([1]; 2008-57 Group B Strep, the 9th table): 0.25 µg/mL (≈ 0.605 µM)
MIC ([1]; 2008-70 Group B Strep, the 9th table): ≤ 0.125 µg/mL
MIC ([1]; 2008-87 Group B Strep, CA-MHB w/5% LHB, the 4th table): 0.25 µg/mL (≈ 0.605 µM)
MIC ([1]; 2008-115 Group B Strep, the 9th table): 0.25 µg/mL (≈ 0.605 µM)
MIC ([1]; 2009-20 Group B Strep, the 9th table): 0.25 µg/mL (≈ 0.605 µM)
MIC ([1]; 2009-40 Group B Strep, the 9th table): 0.25 µg/mL (≈ 0.605 µM)
MIC ([1]; 2009-43 Group B Strep, the 9th table): ≤ 0.125 µg/mL
MIC ([1]; 2009-51 Group B Strep, the 9th table): ≤ 0.125 µg/mL
MIC ([1]; 2009-57 Group B Strep, the 9th table): 0.25 µg/mL (≈ 0.605 µM)
MIC ([1]; 2009-59 Group B Strep, the 9th table): 0.25 µg/mL (≈ 0.605 µM)
MIC ([1]; 2009-60 Group B Strep, the 9th table): 0.25 µg/mL (≈ 0.605 µM)
MIC ([1]; 2009-61 Group B Strep, CA-MHB w/5% LHB, the 4th table): 0.25 µg/mL (≈ 0.605 µM)
MIC ([1]; 2009-62 Group B Strep, CA-MHB w/5% LHB, the 4th table): ≤ 0.125 µg/mL
MIC ([1]; J4182 Group B Strep, the 9th table): ≤ 0.125 µg/mL
MIC ([1]; J4183 Group B Strep, the 9th table): 0.25 µg/mL (≈ 0.605 µM)
MIC ([1]; J4185 Group B Strep, the 9th table): 0.25 µg/mL (≈ 0.605 µM)
MIC ([1]; J4186 Group B Strep, the 9th table): 0.25 µg/mL (≈ 0.605 µM)
MIC ([1]; J4222 Group B Strep, the 9th table): 0.25 µg/mL (≈ 0.605 µM)
MIC [2]: 0.5 µg/mL (≈ 1.21 µM)
MIC [3]: 0.25 µg/mL (≈ 0.605 µM)
MIC ([4]; ATCC49619, ATCC 49619 S. pneumoniae, CA-MHB w/5% LHB, the 4th table): 0.25 µg/mL (≈ 0.605 µM)
MIC ([4]; ATCC49619, ATCC 49619 S. pneumoniae, the 7th table): 0.25 µg/mL (≈ 0.605 µM)
MIC ([4]; CO314937 S. pneumoniae, CA-MHB w/5% LHB, the 4th table): 0.25 µg/mL (≈ 0.605 µM)
MIC ([4]; CT3-5008 S. pneumoniae, the 7th table): 0.25 µg/mL (≈ 0.605 µM)
MIC ([4]; CT3-5803 S. pneumoniae, the 7th table): 0.25 µg/mL (≈ 0.605 µM)
MIC ([4]; CT3-8501 S. pneumoniae, the 7th table): 0.25 µg/mL (≈ 0.605 µM)
MIC ([4]; CT4-3048 S. pneumoniae, the 7th table): 0.25 µg/mL (≈ 0.605 µM)
MIC ([4]; CT4-9046 S. pneumoniae, the 7th table): ≤ 0.125 µg/mL
MIC ([4]; CT4-9693 S. pneumoniae, the 7th table): 0.25 µg/mL (≈ 0.605 µM)
MIC ([4]; CT5-6541 S. pneumoniae, the 7th table): 0.25 µg/mL (≈ 0.605 µM)
MIC ([4]; CT5-8032 S. pneumoniae, the 7th table): 0.25 µg/mL (≈ 0.605 µM)
MIC ([4]; CT5-9124 S. pneumoniae, the 7th table): 0.25 µg/mL (≈ 0.605 µM)
MIC ([4]; CT6-0670 S. pneumoniae, the 7th table): 0.25 µg/mL (≈ 0.605 µM)
MIC ([4]; CT6-7691 S. pneumoniae, the 7th table): 0.25 µg/mL (≈ 0.605 µM)
MIC ([4]; CT0200-2241 S. pneumoniae, the 7th table): 0.25 µg/mL (≈ 0.605 µM)
MIC ([4]; CT0200-2730 S. pneumoniae, the 7th table): 0.5 µg/mL (≈ 1.21 µM)
MIC ([4]; MD77773 S. pneumoniae, CA-MHB w/5% LHB, the 4th table): 0.25 µg/mL (≈ 0.605 µM)
MIC ([5]; NRS 1 / VRSA, NRS-1 (VRSA), the 3rd table): 4 µg/mL (≈ 9.67 µM)
MIC ([5]; NRS 1 / VRSA, NRS-1 VRSA, the 5th table): 4 µg/mL (≈ 9.67 µM)
MIC ([5]; NRS 2 / VRSA, NRS-2 VRSA, the 5th table): 2 µg/mL (≈ 4.84 µM)
MIC ([5]; VRSA, VRS-1 (VRSA), the 3rd table): 32 µg/mL (≈ 77.4 µM)
MIC ([5]; VRSA, VRS-1 VRSA, the 5th table): 32 µg/mL (≈ 77.4 µM)
MIC ([5]; VRSA, VRS-2 (VRSA), the 3rd table): 8 µg/mL (≈ 19.3 µM)
MIC ([5]; VRSA, VRS-2 VRSA, the 5th table): 8 µg/mL (≈ 19.3 µM)
MIC ([5]; VRSA, VRS-3a VRSA, the 5th table): 4 µg/mL (≈ 9.67 µM)
MIC ([5]; VRSA, VRS-3b VRSA, the 5th table): > 64 µg/mL
MIC ([5]; VRSA, VRS-4 (VRSA), the 3rd table): 16 µg/mL (≈ 38.7 µM)
MIC ([5]; VRSA, VRS-4 VRSA, the 5th table): 16 µg/mL (≈ 38.7 µM)
MIC ([5]; VRSA, VRS-5 VRSA, the 5th table): 32 µg/mL (≈ 77.4 µM)
MIC ([5]; VRSA, VRS-6 VRSA, the 5th table): 32 µg/mL (≈ 77.4 µM)
MIC ([5]; VRSA, VRS-7 VRSA, the 5th table): 32 µg/mL (≈ 77.4 µM)
MIC ([5]; VRSA, VRS-8 VRSA, the 5th table): 64 µg/mL (≈ 155 µM)
MIC ([5]; VRSA, VRS-9 VRSA, the 5th table): 64 µg/mL (≈ 155 µM)
MIC ([5]; VRSA, VRS-10 VRSA, the 5th table): 32 µg/mL (≈ 77.4 µM)
MIC ([5]; VRSA, VRS-11a VRSA, the 5th table): 64 µg/mL (≈ 155 µM)
MIC ([5]; VRSA, VRS-11b VRSA, the 5th table): 64 µg/mL (≈ 155 µM)
MIC ([6]; 6215 MRSA): 1 µg/mL (≈ 2.42 µM)
MIC ([6]; 6217 MRSA): 0.5 µg/mL (≈ 1.21 µM)
MIC ([6]; 6218 MRSA): 1 µg/mL (≈ 2.42 µM)
MIC ([6]; 6220 MRSA): 1 µg/mL (≈ 2.42 µM)
MIC ([6]; 6231 MRSA): 0.5 µg/mL (≈ 1.21 µM)
Structure (SMILES): CCC1C(c2ccc(C(F)(F)F)cc2)=C(O)C(=O)N1CCCNCCCCNC (stereo not shown) [Compound 8]
